Reference: ChEMBL document CHEMBL5260838 (J Med Chem, 2019)
Converted amounts (≈) assume the structure as drawn.

How the values were obtained:
[1] = molecular target: Sodium channel protein type 9 subunit alpha (Homo sapiens, UniProt Q15858); assay: Displacement of [3H]GX-545 from human Nav1.7 alpha subunit expressed in HEK293 cells co-expressing beta1 subunit by liquid scintillation counting analysis; format: cell-based
Cytochrome P450 1A2 = molecular target: T1, Cytochrome P450 1A2 (Homo sapiens, UniProt P05177); assay: Inhibition of CYP1A2 (unknown origin); format: ADME
T1 sequence (P05177 whole entry): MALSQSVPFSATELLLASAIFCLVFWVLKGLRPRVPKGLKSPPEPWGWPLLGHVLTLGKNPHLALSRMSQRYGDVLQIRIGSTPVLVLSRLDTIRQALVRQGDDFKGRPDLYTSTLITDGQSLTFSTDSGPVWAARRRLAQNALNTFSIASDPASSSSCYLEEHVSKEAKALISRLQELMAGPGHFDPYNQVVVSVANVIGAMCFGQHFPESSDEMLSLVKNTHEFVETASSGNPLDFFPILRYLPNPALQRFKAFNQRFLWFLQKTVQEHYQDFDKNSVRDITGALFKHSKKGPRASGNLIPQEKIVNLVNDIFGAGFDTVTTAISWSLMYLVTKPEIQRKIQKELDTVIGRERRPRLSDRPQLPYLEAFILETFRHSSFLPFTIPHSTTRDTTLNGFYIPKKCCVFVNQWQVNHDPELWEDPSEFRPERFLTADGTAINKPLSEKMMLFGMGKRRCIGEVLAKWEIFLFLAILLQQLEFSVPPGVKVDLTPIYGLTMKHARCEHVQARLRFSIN

Cytochrome P450 2C9 = Cytochrome P450 2C9 (Homo sapiens, UniProt P11712); assay: Inhibition of CYP2C9 (unknown origin); format: ADME
Cytochrome P450 2D6 = Cytochrome P450 2D6 (Homo sapiens, UniProt P10635); assay: Inhibition of CYP2D6 (unknown origin); format: ADME
[2] = Protein binding in mouse plasma; format: ADME, cell-free; details: read-out: PPB (converted)
[3] = molecular target: Sodium channel protein type 9 subunit alpha (Mus musculus, UniProt Q62205); assay: Inhibition of mouse Nav1.7 at -60 mV holding potential by PatchXpress automated voltage clamp electrophysiology technique
[4] = molecular target: Sodium channel protein type 9 subunit alpha (Rattus norvegicus, UniProt O08562); assay: Inhibition of rat Nav1.7 at -60 mV holding potential by PatchXpress automated voltage clamp electrophysiology technique
[5] = molecular target: Sodium channel protein type 2 subunit alpha (Homo sapiens, UniProt Q99250); assay: Inhibition of human Nav1.2 alpha subunit expressed in HEK293 cells co-expressing beta1 subunit at -35 mV holding potential by PatchXpress automated voltage clamp electrophysiology technique; format: cell-based
[6] = molecular target: Sodium channel protein type 1 subunit alpha (Homo sapiens, UniProt P35498); assay: Inhibition of human Nav1.1 alpha subunit expressed in HEK293 cells co-expressing beta1 subunit at -40 mV holding potential by PatchXpress automated voltage clamp electrophysiology technique; format: cell-based
[7] = molecular target: Sodium channel protein type 8 subunit alpha (Homo sapiens, UniProt Q9UQD0); assay: Inhibition of human Nav1.6 alpha subunit expressed in HEK293 cells co-expressing beta1 subunit at -35 mV holding potential by PatchXpress automated voltage clamp electrophysiology technique; format: cell-based
[8] = Kinetic solubility of compound; format: physicochemical; details: read-out: Kinetic_solubility
MDR1 = assay: Efflux ratio of apparent permeability across basolateral to apical side over apical to basolateral side in MDCK1 cells expressing MDR1; format: ADME, cell-based, Canis lupus familiaris; details: dog, MDCK-MDR1
Homo sapiens = organism: Homo sapiens; assay: Inhibition of voltage-gated sodium channel (unknown origin) at 10 uM relative to control
[9] = AUC in FVB mouse at 30 mg/kg, po; format: ADME, organism-based; design: dose 30 mg/kg, route po; details: in vivo
[10] = Oral bioavailability in FVB mouse at 30 mg/kg; format: ADME, organism-based; details: in vivo
[11] = Oral bioavailability in Sprague-Dawley rat at 5 mg/kg; format: ADME, organism-based; details: in vivo
[12] = Half-life in Beagle dog at 0.5 mg/kg, iv; format: ADME, organism-based, Canis lupus familiaris; details: in vivo
[13] = Volume of distribution at steady state in Beagle dog at 0.5 mg/kg, iv; format: ADME, organism-based, Canis lupus familiaris; details: in vivo, read-out: Vdss
Mus musculus [14] = assay: Antinociceptive activity against aconitine-induced pain in FVB mouse model expressing human Nav 1.7 I848T mutant assessed as reduction in nociceptive behavior at 0.1 mg/kg, po administered 120 mins prior to aconitine administration and measured after 70 mins relative to control; format: functional; design: scale not given: the % may be the effect or the level left; details: time 190 min, 3.167 h
Mus musculus [15] = assay: Antinociceptive activity against aconitine-induced pain in FVB mouse model expressing human Nav 1.7 I848T mutant assessed as reduction in nociceptive behavior at 3 mg/kg, po administered 120 mins prior to aconitine administration and measured after 70 mins relative to control; format: functional; design: scale not given: the % may be the effect or the level left; details: time 190 min, 3.167 h
[16] = Unbound plasma concentration in FVB mouse model of aconitine-induced pain expressing human Nav1.7 I848T mutant at 0.3 mg/kg, po administered 120 mins prior to aconitine administration and measured after 70 mins by UPLC-ESI MS/MS analysis; format: ADME, organism-based; details: in vivo, 3.167 h, time 190 min
[17] = Brain to plasma ratio in FVB mouse model of aconitine-induced pain expressing human Nav1.7 I848T mutant administered orally 120 mins prior to aconitine administered and measured after 70 mins by UPLC-ESI MS/MS analysis; format: ADME; details: route po, time 190 min, read-out: BPR
[18] = Drug concentration in plasma of orally dosed formalin-induced FVB mouse model of pain measured after 3 hrs by UPLC-ESI […] analysis; format: ADME, organism-based; details: route po
[19] = Toxicity in FVB mouse assessed as tolerance; details: in vivo

Sodium channel protein type 2 subunit alpha, sequence (Q99250 whole entry): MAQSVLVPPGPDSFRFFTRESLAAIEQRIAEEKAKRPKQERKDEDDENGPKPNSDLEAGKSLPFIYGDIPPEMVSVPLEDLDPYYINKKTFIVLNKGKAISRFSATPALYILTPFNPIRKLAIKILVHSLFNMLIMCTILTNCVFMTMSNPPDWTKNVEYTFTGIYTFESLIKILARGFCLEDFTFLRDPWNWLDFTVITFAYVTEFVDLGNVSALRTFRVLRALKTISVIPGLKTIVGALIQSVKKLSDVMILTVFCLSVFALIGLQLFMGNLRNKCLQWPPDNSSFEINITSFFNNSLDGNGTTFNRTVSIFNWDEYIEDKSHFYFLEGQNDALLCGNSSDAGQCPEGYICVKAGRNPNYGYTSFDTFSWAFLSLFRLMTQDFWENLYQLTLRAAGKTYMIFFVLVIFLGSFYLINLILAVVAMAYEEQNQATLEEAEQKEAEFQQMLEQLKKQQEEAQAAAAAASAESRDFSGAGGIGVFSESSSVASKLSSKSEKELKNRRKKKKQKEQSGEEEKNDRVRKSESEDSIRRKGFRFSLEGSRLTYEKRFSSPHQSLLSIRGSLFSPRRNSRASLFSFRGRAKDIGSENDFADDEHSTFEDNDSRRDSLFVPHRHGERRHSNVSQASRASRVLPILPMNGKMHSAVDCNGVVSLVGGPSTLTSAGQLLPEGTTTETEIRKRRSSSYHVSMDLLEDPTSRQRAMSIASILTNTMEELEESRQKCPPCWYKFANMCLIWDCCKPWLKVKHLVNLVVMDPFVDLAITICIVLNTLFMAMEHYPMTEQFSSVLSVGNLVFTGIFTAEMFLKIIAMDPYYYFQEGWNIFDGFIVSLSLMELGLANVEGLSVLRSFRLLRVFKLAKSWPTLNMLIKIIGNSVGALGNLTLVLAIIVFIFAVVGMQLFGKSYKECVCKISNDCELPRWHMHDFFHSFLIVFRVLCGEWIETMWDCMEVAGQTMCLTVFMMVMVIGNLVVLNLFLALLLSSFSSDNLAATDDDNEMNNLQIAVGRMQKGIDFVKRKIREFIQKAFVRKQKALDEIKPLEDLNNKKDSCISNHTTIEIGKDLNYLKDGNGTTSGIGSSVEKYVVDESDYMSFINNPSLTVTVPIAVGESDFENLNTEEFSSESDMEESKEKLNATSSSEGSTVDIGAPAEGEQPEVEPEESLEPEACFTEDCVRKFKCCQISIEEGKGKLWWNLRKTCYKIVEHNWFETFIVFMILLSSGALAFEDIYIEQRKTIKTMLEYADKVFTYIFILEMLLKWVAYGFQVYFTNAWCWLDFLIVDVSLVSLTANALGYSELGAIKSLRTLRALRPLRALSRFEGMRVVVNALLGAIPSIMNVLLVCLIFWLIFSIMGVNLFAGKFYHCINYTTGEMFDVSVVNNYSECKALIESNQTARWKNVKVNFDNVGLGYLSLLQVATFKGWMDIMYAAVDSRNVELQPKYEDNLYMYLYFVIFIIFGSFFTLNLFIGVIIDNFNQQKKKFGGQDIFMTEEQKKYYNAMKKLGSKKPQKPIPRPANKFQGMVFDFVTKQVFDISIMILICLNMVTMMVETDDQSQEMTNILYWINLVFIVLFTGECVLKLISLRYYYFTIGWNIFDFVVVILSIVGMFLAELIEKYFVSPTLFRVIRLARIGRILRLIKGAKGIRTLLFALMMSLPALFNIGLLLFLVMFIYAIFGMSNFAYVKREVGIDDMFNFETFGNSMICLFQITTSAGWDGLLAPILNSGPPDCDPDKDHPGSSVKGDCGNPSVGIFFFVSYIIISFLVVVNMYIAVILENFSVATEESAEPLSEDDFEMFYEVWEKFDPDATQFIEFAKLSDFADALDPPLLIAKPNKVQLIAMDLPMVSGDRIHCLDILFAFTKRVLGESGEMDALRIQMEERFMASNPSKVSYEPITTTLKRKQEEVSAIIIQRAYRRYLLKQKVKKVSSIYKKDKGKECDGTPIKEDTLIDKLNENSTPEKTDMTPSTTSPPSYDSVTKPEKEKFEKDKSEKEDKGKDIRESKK
Sodium channel protein type 8 subunit alpha, sequence (Q9UQD0 whole entry): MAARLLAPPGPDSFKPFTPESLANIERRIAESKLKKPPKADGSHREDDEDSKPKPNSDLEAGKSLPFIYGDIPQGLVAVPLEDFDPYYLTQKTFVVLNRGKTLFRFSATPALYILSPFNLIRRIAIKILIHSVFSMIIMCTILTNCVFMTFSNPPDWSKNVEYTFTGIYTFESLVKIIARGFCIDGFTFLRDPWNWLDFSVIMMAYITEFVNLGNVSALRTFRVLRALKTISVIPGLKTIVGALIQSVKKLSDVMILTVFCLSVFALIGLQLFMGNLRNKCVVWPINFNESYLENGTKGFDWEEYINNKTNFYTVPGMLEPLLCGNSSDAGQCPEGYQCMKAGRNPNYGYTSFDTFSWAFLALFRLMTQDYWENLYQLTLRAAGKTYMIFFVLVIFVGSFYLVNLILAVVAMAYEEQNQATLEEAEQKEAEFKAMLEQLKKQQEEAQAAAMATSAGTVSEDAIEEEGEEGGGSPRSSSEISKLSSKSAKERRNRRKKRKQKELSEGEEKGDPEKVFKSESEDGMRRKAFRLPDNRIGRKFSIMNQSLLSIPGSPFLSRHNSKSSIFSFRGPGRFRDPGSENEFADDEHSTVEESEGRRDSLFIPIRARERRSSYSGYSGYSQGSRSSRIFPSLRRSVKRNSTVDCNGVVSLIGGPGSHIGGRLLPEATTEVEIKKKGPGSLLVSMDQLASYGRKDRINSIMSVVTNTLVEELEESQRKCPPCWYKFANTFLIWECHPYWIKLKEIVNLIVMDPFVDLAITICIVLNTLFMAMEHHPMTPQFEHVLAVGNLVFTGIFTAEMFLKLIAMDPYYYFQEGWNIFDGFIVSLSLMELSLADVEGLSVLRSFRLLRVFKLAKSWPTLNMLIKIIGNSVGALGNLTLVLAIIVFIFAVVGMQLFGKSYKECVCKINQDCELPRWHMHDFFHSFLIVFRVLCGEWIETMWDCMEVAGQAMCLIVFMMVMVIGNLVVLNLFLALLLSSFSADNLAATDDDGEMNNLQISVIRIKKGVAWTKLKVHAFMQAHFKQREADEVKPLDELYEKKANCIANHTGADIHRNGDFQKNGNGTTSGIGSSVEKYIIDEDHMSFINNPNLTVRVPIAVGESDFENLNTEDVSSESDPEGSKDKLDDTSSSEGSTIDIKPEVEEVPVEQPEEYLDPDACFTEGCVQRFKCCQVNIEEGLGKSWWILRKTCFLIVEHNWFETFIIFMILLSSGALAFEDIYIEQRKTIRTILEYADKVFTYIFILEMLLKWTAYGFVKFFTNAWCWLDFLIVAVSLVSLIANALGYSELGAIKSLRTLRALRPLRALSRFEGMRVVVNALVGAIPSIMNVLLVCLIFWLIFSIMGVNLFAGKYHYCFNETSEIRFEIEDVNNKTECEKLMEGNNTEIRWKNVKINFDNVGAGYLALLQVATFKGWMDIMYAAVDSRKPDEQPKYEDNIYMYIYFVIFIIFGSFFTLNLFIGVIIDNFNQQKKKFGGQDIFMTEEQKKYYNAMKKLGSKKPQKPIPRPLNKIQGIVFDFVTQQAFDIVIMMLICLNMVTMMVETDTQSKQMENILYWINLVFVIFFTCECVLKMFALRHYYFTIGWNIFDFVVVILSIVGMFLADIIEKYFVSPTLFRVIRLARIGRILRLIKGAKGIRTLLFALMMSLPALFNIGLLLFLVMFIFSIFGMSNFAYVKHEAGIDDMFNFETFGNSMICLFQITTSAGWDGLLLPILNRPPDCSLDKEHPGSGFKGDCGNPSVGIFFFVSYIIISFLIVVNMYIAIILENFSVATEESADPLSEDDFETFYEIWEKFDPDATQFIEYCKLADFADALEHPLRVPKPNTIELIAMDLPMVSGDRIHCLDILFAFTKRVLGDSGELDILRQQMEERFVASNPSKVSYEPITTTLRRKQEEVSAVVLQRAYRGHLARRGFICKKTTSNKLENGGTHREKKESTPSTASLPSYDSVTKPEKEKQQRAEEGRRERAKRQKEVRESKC
Cytochrome P450 2D6, sequence (P10635 whole entry): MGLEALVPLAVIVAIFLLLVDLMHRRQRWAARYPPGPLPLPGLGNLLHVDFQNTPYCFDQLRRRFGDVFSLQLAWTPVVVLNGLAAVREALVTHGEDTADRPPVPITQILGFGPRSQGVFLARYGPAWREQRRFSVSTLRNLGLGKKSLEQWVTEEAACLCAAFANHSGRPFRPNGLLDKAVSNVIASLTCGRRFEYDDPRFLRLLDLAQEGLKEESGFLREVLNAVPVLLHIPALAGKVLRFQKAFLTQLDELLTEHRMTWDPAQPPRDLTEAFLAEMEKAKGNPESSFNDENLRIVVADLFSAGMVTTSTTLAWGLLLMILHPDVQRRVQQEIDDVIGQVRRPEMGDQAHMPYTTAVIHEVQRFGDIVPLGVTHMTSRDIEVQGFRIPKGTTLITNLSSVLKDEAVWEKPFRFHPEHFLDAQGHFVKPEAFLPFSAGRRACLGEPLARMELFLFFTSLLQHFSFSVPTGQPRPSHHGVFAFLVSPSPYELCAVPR
Cytochrome P450 2C9, sequence (P11712 whole entry): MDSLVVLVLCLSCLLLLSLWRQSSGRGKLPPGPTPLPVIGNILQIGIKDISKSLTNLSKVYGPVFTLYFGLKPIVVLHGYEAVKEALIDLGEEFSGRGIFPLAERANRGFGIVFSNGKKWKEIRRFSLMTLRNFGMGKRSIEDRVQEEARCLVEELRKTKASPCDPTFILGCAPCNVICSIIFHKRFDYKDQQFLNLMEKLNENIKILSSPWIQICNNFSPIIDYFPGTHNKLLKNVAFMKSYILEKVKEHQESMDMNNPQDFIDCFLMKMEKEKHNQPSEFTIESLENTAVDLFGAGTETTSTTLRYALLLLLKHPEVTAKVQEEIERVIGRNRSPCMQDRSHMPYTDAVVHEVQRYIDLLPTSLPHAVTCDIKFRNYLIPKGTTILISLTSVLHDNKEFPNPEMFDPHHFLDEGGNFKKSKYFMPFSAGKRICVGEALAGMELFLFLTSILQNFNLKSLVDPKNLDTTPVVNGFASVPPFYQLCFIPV

Work on `CC1(COc2cc(F)c(C(=O)NS(=O)(=O)C3CC3)cc2C2CC2)CCC2(CC1)CC2` yielded an IC50 [1] of 15 nM, an IC50 (Cytochrome P450 1A2) greater than 10 µM and an IC50 (Cytochrome P450 2C9) of 6.1 µM. The IC50 (Cytochrome P450 2D6) was greater than 10 µM, the fraction unbound [2] was 0.001 and the IC50 [3] was 2.2 nM. For the same compound, the IC50 [4] was 3.7 nM, the IC50 [5] was 2 nM and the IC50 [6] was 6 nM. The IC50 [7] was 38 nM, the solubility kinetic [8] was 10 µM (≈ 4.36 µg/mL) and the efflux ratio (MDR1) was 1.2. For the same compound, the inhibition (Homo sapiens) was 80%, the AUC [9] was 113 µM·h and the bioavailability [10] was 31%. The bioavailability [11] was 49%, the half-life [12] was 324 min and the Vd [13] was 0.14 L/kg. For the same compound, the Activity (Mus musculus [14]) was 10%, the Activity (Mus musculus [15]) was 98% and the “Cp(f)” value [16] was 3 nM. For the same compound, the Kp at 3.167 h [17] was 0.08, the concentration at 3 h [18] was 50 µM and the Activity [19] was “Non-Toxic”.
